Laboratory results taken from US8362057B2, “Imidazolecarboxamide derivatives as fructose-1,6-bisphosphatase inhibitors, and pharmaceutical compositions comprising same” (Merck Patent Gesellschaft mit beschränkter Haftung, priority 2005, dated 2013).

Target: T1, human liver recombinant fructose-1,6-bisphosphatase (hFBPase) (Homo sapiens, UniProt P09467)
T1 sequence (P09467 1-338): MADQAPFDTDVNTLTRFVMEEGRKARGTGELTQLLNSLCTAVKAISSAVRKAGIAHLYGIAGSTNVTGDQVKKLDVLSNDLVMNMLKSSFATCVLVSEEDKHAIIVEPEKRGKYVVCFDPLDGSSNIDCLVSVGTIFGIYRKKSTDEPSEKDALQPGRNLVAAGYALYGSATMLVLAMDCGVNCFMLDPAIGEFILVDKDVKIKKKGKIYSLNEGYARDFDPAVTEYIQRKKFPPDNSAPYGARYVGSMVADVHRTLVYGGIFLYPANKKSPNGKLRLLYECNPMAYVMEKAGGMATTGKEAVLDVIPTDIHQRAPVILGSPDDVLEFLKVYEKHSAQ
Assay: Inhibition of human liver recombinant fructose-1,6-bisphosphatase (spectrophotometric coupled PGI/G6PDH assay)
Assay type: biochemical
Details: human liver recombinant enzyme; 0.167 mM fructose-1,6-bisphosphate, pH 7.5, room temperature, 340 nm
Method: Method for Measuring the Inhibition of Human Liver Recombinant Fructose-1,6-bisphosphatase
The enzymatic activity is measured by using a spectrophotometric method by means of reactions coupling the formation of the product (fructose-6-phosphate) to the reduction of NADP+ via phosphoglucoisomerase (PGI) and glucose-6-phosphate dehydrogenase (G6PDH).
The reaction mixtures (250 μl) are prepared in 96-well plates and are composed of 20 mM triethanolamine, pH 7.5, 2 mM MgCl2, 0.1 mM EDTA, 40 mM ammonium sulfate, 0.5 mM NADP, 1 U/ml G6PDH, 1 U/ml PGI and 0.167 mM of substrate (fructose-1,6-bisphosphate).
The inhibitors are prepared at 10^−2 M in 100% DMSO and tested at 10^−5 M (DMSO 0.1% final).
The reactions are initiated by addition of human liver recombinant enzyme fructose-1,6-bisphosphatase (hFBPase) and monitored for 30 minutes at 340 nm, at room temperature, in a Tecan plate reader.

For `CC(C)(C)c1ccc(C(=O)Nc2[nH]c(Cc3ccc(C(=O)N4CCCC4)o3)nc2C(N)=O)cc1` [Example 8.5, 5-(4-tert-Butylbenzoylamino)-2-[5-(pyrrolidine-1-carbonyl)furan-2-yl-methyl]-1H-imidazole-4-carboxamide], the IC50 was 36 µM.
`CC(C)(C)c1ccc(C(=O)Nc2[nH]c(Cc3ccc(C(=O)O)o3)nc2C(N)=O)cc1` [Example 6.8, 5-[5-(4-tert-Butylbenzoylamino)-4-carbamoyl-1H-imidazol-2-ylmethyl]furan-2-carboxylic acid] gave an IC50 of 23 µM.
`CCCc1ccc(C(=O)Nc2[nH]c(Cc3ccc(C(=O)O)o3)nc2C(N)=O)cc1` [Example 6, 5-[4-Carbamoyl-5-(4-propylbenzoylamino)-1H-imidazol-2-ylmethyl]furan-2-carboxylic acid] was tested, and the IC50 was 28 µM.
`CC(C)c1cccc(C(C)C)c1NC(=O)Nc1[nH]c(Cc2ccc(C(=O)O)o2)nc1C(N)=O` [Example 7.9, 5-{4-Carbamoyl-5-[3-(2,6-diisopropylphenyl)ureido]-1H-imidazol-2-yl-methyl}furan-2-carboxylic acid] showed an IC50 of 42 µM.
For `CCCCCc1ccc(NC(=O)Nc2[nH]c(Cc3ccc(C(=O)O)o3)nc2C(N)=O)cc1` [Example 7.8, 5-{4-Carbamoyl-5-[3-(4-pentylphenyl)ureido]-1H-imidazol-2-ylmethyl}furan-2-carboxylic acid], the IC50 was 24 µM.
